In patent US20220235064A1 (WELLMARKER BIO CO., LTD., priority 2019, published 2022):

Key:
[1] = tested on: cancer cell line KM12C, in which RON is activated; assay: Cell growth inhibitory ability in RON-activated cancer cell line (MTS); format: cell-based; details: Homo sapiens, 48 hours, absorbance 490 nm
Description: Experimental Example 2: Identification of Cell Growth Inhibitory Ability of Example Compounds in RON-Activated Cancer Cell Line
The cancer cell line KM12C (80015, KCLB, MEM+1K° FBS), in which RON is activated, was treated with each of the example compounds at a concentration of 10 μM, and then reaction was allowed to proceed for 48 hours. 24 hours after completion of the reaction, 20 μl of MTS solution (CellTiter 96 Aqueous One Solution Cell Proliferation Assay, product number: G3581, Promega) was added to each well, and then incubation was performed at a temperature of 37° C. in 50 CO2 incubator for 4 hours. Then, an IC50 value of the compound was derived by measuring its absorbance value at a wavelength of 490 nm using a Victor X5 plate reader. Here, as a positive control, N-(4-(2-amino-3-chloropyridin-4-yloxy)-3-fluorophenyl)-4-ethoxy-1-(4-fluorophenyl)-2-oxo-1,2-dihydropyridine-3-carboxamide, which is the compound of Example 1 in WO 2008/058229 A1, was used.

[2] = tested on: cancer cell line KM12C, in which RON is activated; assay: Cell-killing efficacy in RON-activated cancer cell line (trypan blue); format: cell-based; details: Homo sapiens, 48 hours, trypan blue, n=2, read-out: Cell death (%) Cancer cell line KM12C
Description: Experimental Example 3: Measurement of Cell-Killing Efficacy of Example Compounds in RON-Activated Cancer Cell Line
The cancer cell line KM12C (80015, KCLB, MEM+10% FBS), in which RON is activated, was dispensed into each 60 mm^2 dish at 1×10^5 cells. After 24 hours, the dish was treated with each of the example compounds at a concentration of 1 μM or 5 μM while performing medium exchange, and then reaction was allowed to proceed for 48 hours. After 48 hours, centrifugation was performed for 4 minutes at 1,500 rpm to collect cells and cell fluid. Thereafter, living cells and dead cells were quantified (n=2) using a trypan blue solution (15250-061, Gibco), and statistical analysis was performed using Excel-T-test. Here, as a negative control, only a solvent (0.100 DMSO) was used; and as a positive control, N-(4-(2-amino-3-chloropyridin-4-yloxy)-3-fluorophenyl)-4-ethoxy-1-(4-fluorophenyl)-2-oxo-1,2-dihydropyridine-3-carboxamide, which is the compound of Example 1 in WO 2008/058229 A1, was used.

| IC50 [1] | SMILES | cytotoxicity at 1 µM [2] | cytotoxicity at 5 µM [2] |
| --- | --- | --- | --- |
| 1 nM | CC1(O)CCN(Cc2ccc(-c3cc4nccc(Oc5ccc(NC(=O)c6c7c(cn(-c8ccc(F)cc8)c6=O)CCO7)cc5F)c4s3)nc2)C1 (stereo not drawn) [Example 24, N-(3-Fluoro-4-((2-(5-((3-hydroxy-3-methylpyrrolidin-1-yl)methyl)pyridin-2-yl)thieno[3,2-b]pyridin-7-yl)oxy)phenyl)-5-(4-fluorophenyl)-6-oxo-2,3,5,6-tetrahydrofuro[3,2-c]pyridine-7-carboxamide] | 18.6% | 16.9% |
| 3 nM | O=C(Nc1ccc(Oc2ccnc3cc(-c4ccc(CN5CCC(F)(F)C5)cn4)sc23)c(F)c1)c1c2c(cn(-c3ccc(F)cc3)c1=O)CCO2 [Example 28, N-(4-((2-(5-((3,3-Difluoropyrrolidin-1-yl)methyl)pyridin-2-yl)thieno[3,2-b]pyridine-7-yl)oxy)-3-fluorophenyl)-5-(4-fluorophenyl)-6-oxo-2,3,5,6-tetrahydrofuro[3,2-c]pyridine-7-carboxamide] | 9.6% | 10.3% |
| 1 nM | O=C(Nc1ccc(Oc2ccnc3cc(-c4ccc(CN5CCCC(O)C5)cn4)sc23)c(F)c1)c1c2c(cn(-c3ccc(F)cc3)c1=O)CCO2 (stereo not drawn) [Example 30, N-(3-Fluoro-4-((2-(5-((3-hydroxypiperidin-1-yl)methyl)pyridin-2-yl)thieno[3,2-b]pyridin-7-yl)oxy)phenyl)-5-(4-fluorophenyl)-6-oxo-2,3,5,6-tetrahydrofuro[3,2-c]pyridine-7-carboxamide] | 24.8% | 25.9% |
| 6 nM | COC1CCCN(Cc2ccc(-c3cc4nccc(Oc5ccc(NC(=O)c6c7c(cn(-c8ccc(F)cc8)c6=O)CCO7)cc5F)c4s3)nc2)C1 (stereo not drawn) [Example 32, N-(3-Fluoro-4-((2-(5-((3-methoxypiperidin-1-yl)methyl)pyridin-2-yl)thieno[3,2-b]pyridin-7-yl)oxy)phenyl)-5-(4-fluorophenyl)-6-oxo-2,3,5,6-tetrahydrofuro[3,2-c]pyridine-7-carboxamide] | 13.5% | 20.4% |
| 5 nM | CC1CCN(Cc2ccc(-c3cc4nccc(Oc5ccc(NC(=O)c6c7c(cn(-c8ccc(F)cc8)c6=O)CCO7)cc5F)c4s3)nc2)CC1 [Example 36, N-(3-Fluoro-4-((2-(5-((4-methylpiperidin-1-yl)methyl)pyridin-2-yl)thieno[3,2-b]pyridin-7-yl)oxy)phenyl)-5-(4-fluorophenyl)-6-oxo-2,3,5,6-tetrahydrofuro[3,2-c]pyridine-7-carboxamide] | 17.1% | 30% |
| 5 nM | COc1cc2c(Oc3ccc(NC(=O)c4c5c(cn(-c6ccc(F)cc6)c4=O)CCO5)cc3F)ccnc2cc1OCCCN1CCC(F)(F)C1 [Example 95, N-(4-((7-(3-(3,3-Difluoropyrrolidin-1-yl)propoxy)-6-methoxyquinolin-4-yl)oxy)-3-fluorophenyl)-5-(4-fluorophenyl)-6-oxo-2,3,5,6-tetrahydrofuro[3,2-c]pyridine-7-carboxamide] | 19.6% | 25.6% |
| 1 nM | N#CC1CN(Cc2ccc(-c3cc4nccc(Oc5ccc(NC(=O)c6c7c(cn(-c8ccc(F)cc8)c6=O)CCO7)cc5F)c4s3)nc2)C1 [Example 19, N-(4-((2-(5-((3-Cyanoazetidin-1-yl)methyl)pyridin-2-yl)thieno[3,2-b]pyridin-7-yl)oxy)-3-fluorophenyl)-5-(4-fluorophenyl)-6-oxo-2,3,5,6-tetrahydrofuro[3,2-c]pyridine-7-carboxamide] | 15.7% | 21.9% |
| 50 nM | COc1cc2c(Oc3ccc(NC(=O)c4c5c(cn(-c6ccc(F)cc6)c4=O)CCO5)cc3F)ccnc2cc1OCCCN1CCC(C)(O)C1 (stereo not drawn) [Example 91, N-(3-Fluoro-4-((7-(3-(3-hydroxy-3-methylpyrrolidin-1-yl)propoxy)-6-methoxyquinoline-4-yl)oxy)phenyl)-5-(4-fluorophenyl)-6-oxo-2,3,5,6-tetrahydrofuro[3,2-c]pyridine-7-carboxamide] | 12.7% | 14.3% |
| 1 nM | COc1cc2c(Oc3ccc(NC(=O)c4c5c(cn(-c6ccc(F)cc6)c4=O)CCO5)cc3F)ccnc2cc1OCCCN1CCS(=O)(=O)CC1 [Example 102, N-(4-((7-(3-(1,1-Dioxidothiomorpholino)propoxy)-6-methoxyquinolin-4-yl)oxy)-3-fluorophenyl)-5-(4-fluorophenyl)-6-oxo-2,3,5,6-tetrahydrofuro[3,2-c]pyridine-7-carboxamide] | 23.4% | 29.7% |
| 2 nM | COC1CN(Cc2ccc(-c3cc4nccc(Oc5ccc(NC(=O)c6c7c(cn(-c8ccc(F)cc8)c6=O)CCO7)cc5F)c4s3)nc2)C1 [Example 14, N-(3-Fluoro-4-((2-(5-((3-methoxyazetidin-1-yl)methyl)pyridin-2-yl)thieno[3,2-b]pyridin-7-yl)oxy)phenyl)-5-(4-fluorophenyl)-6-oxo-2,3,5,6-tetrahydrofuro[3,2-c]pyridine-7-carboxamide] | 13.6% | 21.5% |
| 4 nM | O=C(Nc1ccc(Oc2ccnc3cc(-c4ccc(CN5CCC(F)(F)CC5)cn4)sc23)c(F)c1)c1c2c(cn(-c3ccc(F)cc3)c1=O)CCO2 [Example 35, N-(4-((2-(5-((4,4-Difluoropiperidin-1-yl)methyl)pyridin-2-yl)thieno[3,2-b]pyridine-7-yl)oxy)-3-fluorophenyl)-5-(4-fluorophenyl)-6-oxo-2,3,5,6-tetrahydrofuro[3,2-c]pyridine-7-carboxamide] | 19.6% | 28.1% |
| 1 nM | O=C(Nc1ccc(Oc2ccnc3cc(-c4ccc(CN5CCC(O)CC5)cn4)sc23)c(F)c1)c1c2c(cn(-c3ccc(F)cc3)c1=O)CCO2 [Example 29, N-(3-Fluoro-4-((2-(5-((4-hydroxypiperidin-1-yl)methyl)pyridin-2-yl)thieno[3,2-b]pyridin-7-yl)oxy)phenyl)-5-(4-fluorophenyl)-6-oxo-2,3,5,6-tetrahydrofuro[3,2-c]pyridine-7-carboxamide] | 22.6% | 24.5% |
| 3 nM | O=C(Nc1ccc(Oc2ccnc3cc(-c4ccc(CN5CCC(F)CC5)cn4)sc23)c(F)c1)c1c2c(cn(-c3ccc(F)cc3)c1=O)CCO2 [Example 34, N-(3-Fluoro-4-((2-(5-((4-fluoropiperidin-1-yl)methyl)pyridin-2-yl)thieno[3,2-b]pyridin-7-yl)oxy)phenyl)-5-(4-fluorophenyl)-6-oxo-2,3,5,6-tetrahydrofuro[3,2-c]pyridine-7-carboxamide] | 13.7% | 15.9% |
